Among the data in PubChem BioAssay (NCI) are TGI, outcome and GI50 values, retold here.

SMILES strings stand for the structures.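 All cell lines were grown in 96-well plates and treated with compound for 48 hours. At the GI50, growth is halved. TGI: total growth inhibition.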 Active and inactive are the calls of the source. Rule as the data show it: active = GI50 below about 0.43 µM; inactive = the rest. A value given as a limit tells only on which side of the number the result lay.

Test systems include RXF-631 renal; P388/ADR leukemia; SN12K1 renal; P388 leukemia.
What all share (experiment): NCI tumour cell line growth inhibition, 48 h

In the assay with RXF-631 renal, `CC(C)c1ccc(C(c2ccc(OCC(=O)O)cc2)c2ccc(C(C)C)cc(=O)c2O)c(O)c(=O)c1` returned a TGI of 31.3 µM.

For `CC(=O)N1C/C(=C\c2ccc(N(C)C)cc2)C(=O)/C(=C/c2ccc(N(C)C)cc2)C1`, the TGI in the assay on RXF-631 renal is > 100 µM.

For `c1cc2c(ncc3cscc32)s1`, the TGI in the assay with RXF-631 renal is > 100 µM. As for `C/C=C1/C(=C/c2[nH]c(/C=c3\[nH]/c(=C/C4=NC(=O)C(CC)=C4C)c(C)c3CCC(=O)O)c(CCC(=O)O)c2C)NC(=O)C1C` (stereo unspecified), in the assay with RXF-631 renal, the result was inactive. As to `N#CCc1ccc(C(C#N)/C(CCCC(=O)Nc2cccc([N+](=O)[O-])c2)=N/NC(N)=S)cc1` (stereo unspecified), the TGI in the assay on RXF-631 renal was > 100 µM.

As to `Fc1ccc(C2SCc3nc4ccccc4n32)cc1Cl` (stereo unspecified), in the assay with RXF-631 renal, the TGI was > 100 µM. Turning to `Nc1ncn(C2CC(O)C(CO)O2)c(=O)n1` (stereo unspecified), the TGI in the assay with P388/ADR leukemia was 226 µM; in the assay on SN12K1 renal, > 375 µM; in the assay on P388 leukemia it was 142 µM. For the molecule `CN(C)C(c1ccccc1)C(O)c1ccccc1` (stereo unspecified), in the assay on RXF-631 renal, the TGI is > 100 µM.

On to `CS(=O)(=O)c1cc(=O)c2ccccc2s1`, for which the TGI in the assay on RXF-631 renal was 21.3 µM. For the molecule `COc1ccc(/C=C\c2cc(OC)c(OC)c(OC)c2)cc1OC(=O)NCCN(C)C`, the GI50 in the assay on RXF-631 renal was 0.258 µM. Turning to `FC(F)(F)c1nc(-c2ccccc2)oc1Sc1nnc(Sc2oc(-c3ccccc3)nc2C(F)(F)F)s1`, the TGI with RXF-631 renal is > 84.1 µM. Still for that read-out and setting: to `O=C(/C=C/c1c(O)ccc2ccccc12)c1ccccc1` belongs > 100 µM. In the case of `Cc1[nH]c2ccccc2c1C1Cc2ccccc2N1C(=O)/C(Cl)=C/c1ccccc1` (stereo unspecified), the TGI in the assay with RXF-631 renal is > 100 µM. As to `COc1ccc(/C(Cl)=C(\C=O)c2ccc([N+](=O)[O-])cc2)cc1`, the TGI with RXF-631 renal came out at 68.3 µM.
